Results published in PMC4571170 (ACS Central Science, 2015).
Changes are numbered by the printed parent chain. Numbers in names are those of the source.

B1: DRRRD RNase 1: RI-evasive cytotoxic variant of RNase 1 (R39D/N67R/N88R/G89R/R91D) (protein, UniProt P07998 29-156, looked up, variant R39D N67R N88R G89R R91D)
Ribonuclease pancreatic: KESRAKKFQRQHMDSDSSPSSSSTYCNQMMRRRNMTQGDCKPVNTFVHEPLVDVQNVCFQEKVTCKRGQGNCYKSNSSMHITDCRLTRRSDYPNCAYRTSPKERHIIVACEGSPYVPVHFDASVEDST
B2: RNase A (G88R): RI-evasive cytotoxic G88R variant of RNase A (protein, UniProt P61823 27-150, looked up, variant G88R)
Ribonuclease pancreatic: KETAAAKFERQHMDSSTSAASSSNYCNQMMKSRNLTKDRCKPVNTFVHESLADVQAVCSQKNVACKNGQTNCYQSYSTMSITDCRETRSSKYPNCAYKTTQANKHIIVACEGNPYVPVHFDASV

Key:
RNase A = target: T1, RNase A (Bos taurus, UniProt P61823); assay: Glycan array screening for RNase A ligands; format: binding, cow; settings: printed glycan array, Figure 1
T1 sequence (P61823 27-150): B2 Ribonuclease pancreatic with R88G

human leukemia cells = settings: read-out: IC50 (cytotoxicity), ref [6],[15]; cited from earlier work

Molecule | binding of RNase A to glycan in the array (in words) (RNase A) | IC50 (human leukemia cells) [µM]
CC(=O)NC1C(OC2C(O)C(CO)OC(OC3C(CO)OC(OC4C(CO)OC(O)C(O)C4O)C(O)C3O)C2O)OC(CO)C(O)C1OC1OC(CO)C(O)C(O)C1O (stereo not shown) [glycan 127, Galβ1–3GalNAcβ1–3Galα1–4Galβ1–4Glc] | little affinity | 
GalNAcβ1–3Galα1–4Galβ1–4GlcNAc [glycan 90] | did bind | 
B1 |  | 10.8
B2 |  | 6.2
